Here are results for 32 compounds from ChEMBL document CHEMBL3044645, “Synthesis and Pesticidal Activities of N-Phosphinoyl Heterocycles” (J Pestic Sci, 1997).

The structures appear in SMILES notation.

The subject of data set [1] is Tetranychus urticae. The experiment in a line: Acaricidal activity against Tetranychus urticae (two-spotted spider mite) in French bean leaf at <50 ppm after 2 days. Type of data set: functional.
The subject of data set [2] is Myzus persicae. The experiment in a line: Aphicidal activity against Myzus persicae (green peach aphid) in cabbage leaf at <50 ppm after 2 days. Type of data set: functional.
Data set [3] concerns Meloidogyne incognita. Nature of the data set: Nematicidal activity against Meloidogyne incognita (root-knot nematode) at 1 kg/ha after 3 weeks. Type of data set: functional.
The nature of data set [4]: Acute toxicity in Mus musculus (mouse). The settings on record: in vivo. Type of data set: organism-based.
Data set [5] is described as follows: Dissociation constant, pKa of the compound by titration method. Type of data set: physicochemical.
Data set [6] has as its system Meloidogyne incognita. Nature of the data set: Nematicidal activity against Meloidogyne incognita (root-knot nematode) at 4 to 8 kg/ha after 3 weeks. Type of data set: functional.
In data set [7] the test system is Myzus persicae. Nature of the data set: Aphicidal activity against Myzus persicae (green peach aphid) in cabbage leaf at 200 to 800 ppm after 2 days. Type of data set: functional.
The subject of data set [8] is Tetranychus urticae. Nature of the data set: Acaricidal activity against Tetranychus urticae (two-spotted spider mite) in French bean leaf at 200 to 800 ppm after 2 days. Type of data set: functional.
The subject of data set [9] is Myzus persicae. Nature of the data set: Aphicidal activity against Myzus persicae (green peach aphid) in cabbage leaf at 50 to 200 ppm after 2 days. Type of data set: functional.
The test system of data set [10] is Tetranychus urticae. Nature of the data set: Acaricidal activity against Tetranychus urticae (two-spotted spider mite) in French bean leaf at 50 to 200 ppm after 2 days. Type of data set: functional.
Data set [11] concerns Meloidogyne incognita. Nature of the data set: Nematicidal activity against Meloidogyne incognita (root-knot nematode) at 8 kg/ha after 3 weeks. Type of data set: functional.
Data set [12] has as its system Tetranychus urticae. The experiment in a line: Acaricidal activity against Tetranychus urticae (two-spotted spider mite) in French bean leaf at 800 ppm after 2 days. Type of data set: functional.
Data set [13] concerns Myzus persicae. The experiment in a line: Aphicidal activity against Myzus persicae (green peach aphid) in cabbage leaf at 800 ppm after 2 days. Type of data set: functional.
In data set [14] the test system is Meloidogyne incognita. The experiment in a line: Nematicidal activity against Meloidogyne incognita (root-knot nematode) at 1 to 4 kg/ha after 3 weeks. Type of data set: functional.
Data set [15] relates to Musca domestica. Nature of the data set: Insecticidal activity against adult Musca domestica (house fly) assessed per adult. Type of data set: functional.
For data set [16], the system named is Myzus persicae. Nature of the data set: Insecticidal activity against Myzus persicae (green peach aphid). Type of data set: functional.
Data set [17] relates to Meloidogyne incognita. The experiment in a line: Insecticidal activity against Meloidogyne incognita (root-knot nematode). Type of data set: functional, organism-based.
In data set [18] the test system is Tetranychus urticae. The experiment in a line: Insecticidal activity against Tetranychus urticae (two-spotted spider mite). Type of data set: functional.
The target in data set [19] is Acetylcholinesterase (Musca domestica, UniProt Q7YWJ9). Nature of the data set: Inhibition of Musca domestica (house fly) head AchE. Conditions: read-out: I50.
Chain of Acetylcholinesterase (Q7YWJ9 whole entry): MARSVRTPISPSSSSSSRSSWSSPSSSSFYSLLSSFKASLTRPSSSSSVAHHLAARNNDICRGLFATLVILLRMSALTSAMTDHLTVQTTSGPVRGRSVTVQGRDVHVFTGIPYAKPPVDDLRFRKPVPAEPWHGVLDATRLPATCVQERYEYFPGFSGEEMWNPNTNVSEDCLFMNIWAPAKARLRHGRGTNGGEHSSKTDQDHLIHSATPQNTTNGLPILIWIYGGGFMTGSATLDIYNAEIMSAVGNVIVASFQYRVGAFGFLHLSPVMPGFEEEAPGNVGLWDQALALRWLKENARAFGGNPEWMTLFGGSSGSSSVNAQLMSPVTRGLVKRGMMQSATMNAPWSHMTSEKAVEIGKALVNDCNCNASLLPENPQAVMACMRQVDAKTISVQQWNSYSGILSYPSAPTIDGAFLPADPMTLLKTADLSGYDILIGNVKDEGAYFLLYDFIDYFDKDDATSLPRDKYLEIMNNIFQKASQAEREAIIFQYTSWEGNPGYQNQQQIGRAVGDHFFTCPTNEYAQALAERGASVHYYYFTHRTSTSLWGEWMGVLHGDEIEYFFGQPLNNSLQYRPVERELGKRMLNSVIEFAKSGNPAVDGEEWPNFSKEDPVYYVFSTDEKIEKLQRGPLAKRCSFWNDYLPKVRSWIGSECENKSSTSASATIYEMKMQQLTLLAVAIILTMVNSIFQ

Regarding `CCOP(=O)(SC(C)CC)N1CCOC1=O` (stereo not given), the results for the Activity in data set [1], in [2] and in data set [3] were above 90%, above 90% and 0%, respectively. The LD50 (as a rule, the dose expected to kill half of the subjects tested) in [4] is below 30 mg/kg. For the same compound, the pKa (as a rule, the negative logarithm of the acid dissociation constant) in data set [5] came out at 11.8.

Regarding `CCOP(=O)(SC(C)CC)N1CCCOC1=O` (stereo not given), the Activity in data set [6] was 0%; in data set [7] it was above 90%; in data set [8] it was above 90%.

Consider `CCOP(=O)(SC(C)CC)N1CCCC1=O` (stereo not given), for which the Activity was above 90% in data set [8], 0% in [3] and above 90% in data set [9].

In the case of `CCOP(=O)(SC(C)CC)N1CCSC1=S` (stereo not given), the Activity in [10] was above 90%; in data set [7], above 90%; in data set [11], above 25%.

Turning to `CCOP(=O)(SC(C)CC)N1CCSC1=C(C#N)C#N` (stereo not given), the Activity is on record as above 90% in data set [7], above 25% in data set [11] and below 90% in [12].

As to `CCOP(=O)(SC(C)CC)N1OCCC1=O` (stereo not given), the Activity is recorded as above 90% in [7], above 25% in data set [11] and above 90% in data set [8]. Further, in data set [5], the pKa came out at 10.5.

With `CCOP(=O)(SC(C)CC)n1ccoc1=O` (stereo not given), the Activity is given as below 90% in [13], above 25% in [11] and below 90% in data set [12].

`CCOP(=O)(SC(C)CC)N1C(=O)CCC1=O` (stereo not given): the Activity in data set [13] is given as below 90%; in data set [11], above 25%; in [12], below 90%. In [5], this compound displayed a pKa of 9.6.

`CCOP(=O)(SC(C)CC)N1CC(=O)SC1=O` (stereo not given): the Activity in data set [13] is given as below 90%; in data set [11], above 25%; in data set [12], below 90%.

For `CCOP(=O)(SC(C)CC)N1C(=O)OCC1C` (stereo not given), the Activity in data set [1] was above 90%; in [2], above 90%; in [3] it was 0%.

For `CCOP(=O)(SC(C)CC)N1C(=O)OCC1CC` (stereo not given), the Activity in data set [1] is recorded as above 90%; in data set [2], above 90%; in data set [3], 0%.

On to `CCCCC1COC(=O)N1P(=O)(OCC)SC(C)CC` (stereo not given), for which the values for the Activity in data set [14], in data set [13] and in data set [8] were 0%, below 90% and above 90%, respectively.

Regarding `CCOP(=O)(SC(C)CC)N1C(=O)OCC1OC` (stereo not given), the figures for the Activity in data set [10], in data set [3] and in data set [9] were above 90%, 0% and above 90%, respectively.

As to `CCOP(=O)(SC(C)CC)N1C(=O)OCC1C(=O)OC` (stereo not given), the Activity in data set [13] was below 90%; in [11] it was above 25%; in [8], above 90%.

In the case of `CCOP(=O)(SC(C)CC)N1CC(C)OC1=O` (stereo not given), the Activity in data set [1] was above 90%; in data set [2] it was above 90%; in data set [3], 0%.

Take `CCOP(=O)(SC(C)CC)N1CC(C(C)(C)C)OC1=O` (stereo not given): the Activity in [6] is on record as 0%; in [10], above 90%; in data set [7], above 90%.

For `CCOP(=O)(SC(C)CC)N1CC(S(C)(=O)=O)OC1=O` (stereo not given), the Activity in data set [6] was 0%; in data set [7], above 90%; in [8], above 90%.

Consider `CCOP(=O)(SC(C)CC)N1CC(C#N)OC1=O` (stereo not given), for which the Activity in [6] is recorded as 0%; in [13], below 90%; in data set [8], above 90%.

In the case of `CCOP(=O)(SC(C)CC)N1C(=O)OC(C)C1C` (stereo not given), the Activity in data set [1] is recorded as above 90%; in data set [3], 0%.

With `CCOP(=O)(OCC)N1CCOC1=O`, the Activity in data set [13] is below 90%; in data set [11], above 25%; in [12] it was below 90%.

`CCCSP(=O)(SC)N1CCOC1=O` (stereo not given): the Activity in data set [13] is recorded as below 90%; in data set [11], above 25%; in [12] it was below 90%.

Turning to `CCCSP(=O)(NC)N1CCOC1=O` (stereo not given), the values for the Activity in data set [7], in data set [11] and in [8] were above 90%, above 25% and above 90%, respectively.

For `CCOP(=O)(SCC(C)C)N1CCOC1=O` (stereo not given), the Activity in data set [14] is 0%; in [1] it was above 90%; in [2], above 90%.

Turning to `CCOP(=O)(SC(C)C)N1CCOC1=O` (stereo not given), the Activity in data set [6] is reported as 0%; in data set [7], above 90%; in data set [8], above 90%.

Take `CCC(C)SP(=O)(OCCF)N1CCOC1=O` (stereo not given): the Activity is 0% in data set [6], above 90% in [7] and below 90% in [12].

`CCCOP(=O)(SC(C)CC)N1CCOC1=O` (stereo not given): the Activity in data set [6] is given as 0%; in [7] it was above 90%; in data set [8], above 90%.

Turning to `CCC(C)SP(=O)(OC)N1CCOC1=O` (stereo not given), the Activity in data set [7] is given as above 90%; in [11], above 25%; in data set [8] it was above 90%.

Take `CCOP(=S)(SC(C)CC)N1CCOC1=O` (stereo not given): the Activity in data set [7] was above 90%; in data set [11], above 25%; in data set [8], above 90%.

As to `CCOP(=O)(SC(C)CC)N1CCSC1=O` (racemic) [FOSTHIAZATE], the Activity in data set [15] came out at 18 µg. Also, the LC50 (in general, the concentration lethal to half of the exposed cells or organisms) in data set [16] is given as above 4.06 ppm; in data set [18], above 22.4 ppm. In [17], this compound yielded an EC50 of 29.6 ppm.

`CCOP(=O)(SC(C)CC)N1CCSC1=O` (single isomer, unassigned; (+)) [FOSTHIAZATE]: the Activity in data set [15] is 1.945 µg. The LC50 in data set [16] is above 53.7 ppm; in [18], above 800 ppm. This compound yielded an EC50 in data set [17] of 2.339 ppm.

In data set [15], `CCOP(=O)(SC(C)CC)N1CCSC1=O` (stereo in doubt; (-)-8) [FOSTHIAZATE] displayed an Activity of 0.108 µg. Moreover, the LC50 in data set [16] is recorded as above 13.2 ppm; in [18], 35.7 ppm. In addition, the EC50 in data set [17] turned out to be 0.079 ppm. For the same compound, the IC50 in data set [19] was above 1000 µM.

As to `CCOP(=O)(SC(C)CC)N1CCSC1=O` (stereo not given) [FOSTHIAZATE], the values for the Activity in data set [1], in data set [2] and in data set [3] were above 90%, above 90% and 0%, respectively. This compound returned an LD50 in data set [4] of 127 mg/kg. Also, the pKa in data set [5] is 11.6.
